From the supplement of paper PMC11061612

How the values were obtained:
Experiment in all cases: combination Emax (second highest fraction inhibited in the dose matrix, 72 h); higher = more inhibition; extreme values may be limits of the assay
[1] = system: CAMA-1 (Breast Carcinoma)
Summary of the method: (§1)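 After 24 hours at 37°C and 5% CO2 in 1536-well plates, cells in DMEM/F12 or RPMI plus 10% FBS received two-drug dose matrices for 72 hours. Viability came from CellTiter-Glo 2.0 luminescence and was scaled as inhibition, anchored at 0 by vehicle wells and at 1 by blank wells. Combination Emax is taken as the second-highest inhibition in the matrix, and Bliss excess as the observed combination effect less EA + EB − EA·EB, with EA and EB the single-agent effects.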

[2] = system: KM12 (Colorectal Carcinoma)
Summary of the method: as §1

[3] = system: BFTC-905 (Bladder Carcinoma)
Summary of the method: as §1

[4] = system: SW837 (Colorectal Carcinoma)
Summary of the method: as §1

[5] = system: KYSE-180 (Esophageal Squamous Cell Carcinoma)
Summary of the method: as §1

[6] = system: COLO-678 (Colorectal Carcinoma)
Summary of the method: as §1

LN-18 (Glioblastoma) = system: LN-18 (Glioblastoma)
Summary of the method: as §1

[7] = system: SW1417 (Colorectal Carcinoma)
Summary of the method: as §1

WIL2-NS (Non-Cancerous) = system: WIL2-NS (Non-Cancerous)
Summary of the method: as §1

[8] = system: HL-60 (Acute Myeloid Leukemia)
Summary of the method: as §1

[9] = system: DiFi (Colorectal Carcinoma)
Summary of the method: as §1

MEL-JUSO (Melanoma) = system: MEL-JUSO (Melanoma)
Summary of the method: as §1

[10] = system: TE-6 (Esophageal Squamous Cell Carcinoma)
Summary of the method: as §1

[11] = system: BL-41 (Burkitt's Lymphoma)
Summary of the method: as §1

[12] = system: EVSA-T (Breast Carcinoma)
Summary of the method: as §1

[13] = system: TOV-112D (Ovarian Carcinoma)
Summary of the method: as §1

U251 (Low Grade Glioma) = system: U251 (Low Grade Glioma)
Summary of the method: as §1

ES8 (Ewing's Sarcoma) = system: ES8 (Ewing's Sarcoma)
Summary of the method: as §1

[14] = system: MOLT-16 (T-Lymphoblastic Leukemia)
Summary of the method: as §1

[15] = system: P12-ICHIKAWA (T-Lymphoblastic Leukemia)
Summary of the method: as §1

Structure (SMILES) | combination Emax [1] | combination Emax [2] | combination Emax [3] | combination Emax [4] | combination Emax [5] | combination Emax [6] | combination Emax (LN-18 (Glioblastoma)) | combination Emax [7] | combination Emax (WIL2-NS (Non-Cancerous)) | combination Emax [8] | combination Emax [9] | combination Emax (MEL-JUSO (Melanoma)) | combination Emax [10] | combination Emax [11] | combination Emax [12] | combination Emax [13] | combination Emax (U251 (Low Grade Glioma)) | combination Emax (ES8 (Ewing's Sarcoma)) | combination Emax [14] | combination Emax [15]
C=CCn1c(=O)c2cnc(Nc3ccc(N4CCN(C)CC4)cc3)nc2n1-c1cccc(C(C)(C)O)n1 [AZD1775] + C1CN(CCC1(C(=O)N[C@@H](CCO)C2=CC=C(C=C2)Cl)N)C3=NC=NC4=C3C=CN4 [Capivasertib] (first compound max 3 µM, partner max 3 µM) | 0.775 | 0.872 | 0.904 | 0.692 | 0.8 | 0.51 | 0.581 | 0.544 | 0.953 | 0.849 | 0.643 | 0.442 | 0.736 | 0.993 | 0.958 | 0.889 | 0.671 | 0.943 | 1 | 1
CN(CCO)CC[C@H](CSc1ccccc1)Nc1ccc(S(=O)(=O)NC(=O)c2ccc(N3CCC([C@@H](O)c4ccccc4-c4ccc(Cl)cc4)CC3)cc2)cc1S(=O)(=O)C(F)(F)F [AZD4320] + C1CN(CCC1(C(=O)N[C@@H](CCO)C2=CC=C(C=C2)Cl)N)C3=NC=NC4=C3C=CN4 [Capivasertib] (first compound max 1 µM, 7x7, partner max 3 µM) | 0.821 | 0.565 | 0.0682 | 0.104 | 0.32 | 0.0393 | 0.298 | 0.709 | 0.535 | 0.873 | 0.804 | 0.139 | 0.633 | 0.215 | 0.924 | 0.131 | 0.181 | 0.493 | 1 | 1
CN(CCO)CC[C@H](CSc1ccccc1)Nc1ccc(S(=O)(=O)NC(=O)c2ccc(N3CCC([C@@H](O)c4ccccc4-c4ccc(Cl)cc4)CC3)cc2)cc1S(=O)(=O)C(F)(F)F [AZD4320] + C=CCn1c(=O)c2cnc(Nc3ccc(N4CCN(C)CC4)cc3)nc2n1-c1cccc(C(C)(C)O)n1 [AZD1775] (first compound max 1 µM, partner max 1 µM) | 0.182 | 0.881 | 0.759 | 0.461 | 0.783 | 0.367 | 0.537 | 0.853 | 0.973 | 0.956 | 0.944 | 0.73 | 0.556 | 1 | 0.191 | 0.496 | 0.289 | 0.962 | 1 | 1
CN(CCO)CC[C@H](CSc1ccccc1)Nc1ccc(S(=O)(=O)NC(=O)c2ccc(N3CCC([C@@H](O)c4ccccc4-c4ccc(Cl)cc4)CC3)cc2)cc1S(=O)(=O)C(F)(F)F [AZD4320] + CCN(CCO)CCCOc1ccc2c(Nc3cc(CC(=O)Nc4cccc(F)c4)[nH]n3)ncnc2c1 [AZD2811] (first compound max 1 µM, 7x7, partner max 1 µM) | 0.616 | 0.173 | 0.856 | 0.508 | 0.181 | 0.456 | 0.584 | 0.759 | 0.311 | 0.958 | 0.882 | 0.446 | 0.524 | 0.723 | 0.704 | 0.485 | 0.42 | 1 | 1 | 1
CN(CCO)CC[C@H](CSc1ccccc1)Nc1ccc(S(=O)(=O)NC(=O)c2ccc(N3CCC([C@@H](O)c4ccccc4-c4ccc(Cl)cc4)CC3)cc2)cc1S(=O)(=O)C(F)(F)F [AZD4320] + CN(C)CCCOc1ccc(-c2ccc3ncc4c(c3c2)n(C2CCOCC2)c(=O)n4C)cn1 [AZD0156] (first compound max 1 µM, 7x7, partner max 1 µM) | 0.117 | 0.186 | 0.15 | 0.191 | 0.112 | 0.0581 | 0.222 | 0.742 | 0.22 | 0.898 | 0.608 | 0.212 | 0.391 | 0.277 | 0.163 | 0.222 | 0.185 | 0.64 | 0.989 | 1
CN(CCO)CC[C@H](CSc1ccccc1)Nc1ccc(S(=O)(=O)NC(=O)c2ccc(N3CCC([C@@H](O)c4ccccc4-c4ccc(Cl)cc4)CC3)cc2)cc1S(=O)(=O)C(F)(F)F [AZD4320] + C[C@@H](Nc1cc(F)cc(F)c1)c1cc(C(=O)N(C)C)cc2c(=O)cc(N3CCOCC3)oc12 [AZD8186] (first compound max 1 µM, 7x7, partner max 3 µM) | 0.84 | 0.315 | 0.851 | 0.395 | 0.177 | 0.344 | 0.555 | 0.707 | 0.652 | 0.958 | 0.961 | 0.428 | 0.563 | 0.745 | 0.885 | 0.205 | 0.635 | 0.99 | 1 | 1
CN(CCO)CC[C@H](CSc1ccccc1)Nc1ccc(S(=O)(=O)NC(=O)c2ccc(N3CCC([C@@H](O)c4ccccc4-c4ccc(Cl)cc4)CC3)cc2)cc1S(=O)(=O)C(F)(F)F [AZD4320] + Cc1cc2ncnn2cc1Nc1ncc2c(n1)n(C1CCOCC1)c(=O)n2C [AZD7648] (first compound max 1 µM, 7x7, partner max 10 µM) | 0.229 | 0.226 | 0.117 | 0.201 | 0.0754 | 0.105 | 0.204 | 0.798 | 0.335 | 0.923 | 0.784 | 0.181 | 0.524 | 0.203 | 0.191 | 0.318 | 0.118 | 0.57 | 1 | 1
CN(CCO)CC[C@H](CSc1ccccc1)Nc1ccc(S(=O)(=O)NC(=O)c2ccc(N3CCC([C@@H](O)c4ccccc4-c4ccc(Cl)cc4)CC3)cc2)cc1S(=O)(=O)C(F)(F)F [AZD4320] + Cn1cnc2c(F)c(Nc3ccc(Br)cc3Cl)c(C(=O)NOCCO)cc21 [Selumetinib] (first compound max 1 µM, 7x7, partner max 3 µM) | 0.468 | 0.579 | 0.825 | 0.489 | 0.19 | 0.604 | 0.329 | 0.935 | 0.633 | 0.994 | 0.951 | 0.432 | 0.593 | 0.801 | 0.506 | 0.248 | 0.651 | 0.99 | 1 | 1
COc1nnc2ccc(N3CCC(c4ccc(OCCN5CCN(C)C(=O)[C@H]5C)cc4)CC3)nn12 [AZD5153] + C=CCn1c(=O)c2cnc(Nc3ccc(N4CCN(C)CC4)cc3)nc2n1-c1cccc(C(C)(C)O)n1 [AZD1775] (first compound max 1 µM, partner max 1 µM) | 0.453 | 0.853 | 0.63 | 0.715 | 0.742 | 0.531 | 0.649 | 0.601 | 0.878 | 0.932 | 0.727 | 0.491 | 0.731 | 1 | 0.942 | 0.815 | 0.799 | 0.779 | 1 | 1
COc1nnc2ccc(N3CCC(c4ccc(OCCN5CCN(C)C(=O)[C@H]5C)cc4)CC3)nn12 [AZD5153] + CC1(C)CCC(CN2CCN(c3ccc(C(=O)NS(=O)(=O)c4ccc(NCC5CCOCC5)c([N+](=O)[O-])c4)c(Oc4cnc5[nH]ccc5c4)c3)CC2)=C(c2ccc(Cl)cc2)C1 [Venetoclax] (first compound max 1 µM, 7x7, partner max 1 µM) | 0.456 | 0.643 | 0.633 | 0.551 | 0.293 | 0.408 | 0.638 | 0.463 | 0.807 | 0.99 | 0.586 | 0.215 | 0.572 | 0.87 | 0.938 | 0.588 | 0.449 | 0.719 | 1 | 0.932
COc1nnc2ccc(N3CCC(c4ccc(OCCN5CCN(C)C(=O)[C@H]5C)cc4)CC3)nn12 [AZD5153] + CCN(CCO)CCCOc1ccc2c(Nc3cc(CC(=O)Nc4cccc(F)c4)[nH]n3)ncnc2c1 [AZD2811] (first compound max 1 µM, 7x7, partner max 1 µM) | 0.497 | 0.66 | 0.71 | 0.57 | 0.397 | 0.506 | 0.632 | 0.477 | 0.811 | 0.984 | 0.667 | 0.37 | 0.632 | 0.874 | 0.938 | 0.718 | 0.661 | 0.994 | 1 | 1
COc1nnc2ccc(N3CCC(c4ccc(OCCN5CCN(C)C(=O)[C@H]5C)cc4)CC3)nn12 [AZD5153] + C[C@@H]1COCCN1C2=NC(=NC(=C2)C3(CC3)[S@](=N)(=O)C)C4=C5C=CNC5=NC=C4 [AZD6738] (first compound max 1 µM, 7x7, partner max 10 µM) | 0.661 | 0.88 | 0.802 | 0.756 | 0.591 | 0.484 | 0.815 | 0.662 | 0.935 | 0.985 | 0.844 | 0.502 | 0.79 | 1 | 0.977 | 0.849 | 0.836 | 0.907 | 1 | 1
